Assay results from patent US9937250B2, “Immunogenic tumor associated stromal cell antigen peptides and methods of their use” (University of Pittsburgh—Of the Commonwealth System of …, priority 2011, dated 2018).

Assays:
[1] = test system: CD8+ T cells from HLA-A2+ normal donors or HLA-A2+ melanoma patients; test: In vitro sensitization of human CD8+ T cells with TASA peptide-pulsed autologous DC, IFN-γ ELISA against peptide-pulsed T2 cells; assay type: cell-based; conditions: response = IFN-γ >30 pg/ml and >2 fold HIV-nef control; for Specific CD8+ T Cell Response, HLA-A2+ Normal Donors (of 8): number of responding donors of 8; for Specific CD8+ T Cell Response, HLA-A2+ Melanoma Patients (of 10): number of responding patients of 10
Protocol: The indicated peptides were pulsed onto autologous DC and used to prime and boost CD8^+ T cells isolated from the peripheral blood of eight normal HLA-A2^+ donors or ten HLA-A2^+ patients with melanoma. Seven days after the primary in vitro sensitization (IVS) (melanoma patients) or a secondary IVS boost (normal donors), T cells were analyzed for their reactivity against HLA-A2^+ T2 cells pulsed with the relevant peptide vs. the negative control HIV-nef190-198 peptide. After 24 hours of co-culture, cell-free supernatants were analyzed for levels of secreted IFN-γ using a commercial ELISA. Data are reported in Bar and Whisker plots, with p-values provided for paired pre- versus post-IVS data from normal donors and patients. In addition, p<0.05 was detected for MEL-Post versus ND-Post for the following peptides: DLK1 (309), NG2 (770), NG2 (2238), PDGFRβ (891) and RGS5 (5).
In vitro assessment of human CD8^+ T cell responses against TASA- or TAA-derived peptides. Peripheral blood mononuclear cells (PBMC) were obtained by venipuncture or leukapheresis from HLA-A2^+ normal donors or HLA-A2^+ melanoma patients with written consent under IRB-approved protocols (Table 3). CD8^+ T cells were then isolated by MACS (Miltenyi Biotec, Auburn, Calif.) and either not stimulated or stimulated with autologous, TASA peptide-pulsed DC as previously described (Tatsumi et al., Cancer Res., 63:4481-4489, 2003). Normal donor T cells were stimulated with TASA peptide-pulsed DC twice on a weekly schedule, with responder T cells harvested for analysis of their specificity 5 days after the booster stimulation (i.e. day 12 of T cell-DC co-culture). Melanoma patient CD8^+ T cells were analyzed after a single round of stimulation with TASA peptide-pulsed, autologous DC (i.e. day 5 of T cell-DC co-culture) as indicated. For DC-based stimulations, DC were pulsed with an equimolar (1 μM each) pool of the TASA peptides (Table 4) for 4 h at 37° C. at 5% CO2 tension. These antigen-loaded DC were then used to stimulate autologous CD8^+ T cells at a T cell-to-DC ratio of 10:1 to generate a bulk population of responder T cells. T cells were maintained in IMDM media supplemented with 10% human AB serum, 100 U/ml penicillin, […], 10 mM L-glutamine and MEM non-essential amino acids (all reagents from Invitrogen, except human AB serum that was purchased from Sigma-Aldrich, St. Louis, Mo.). Responder CD8^+ T cells were analyzed for reactivity against control (HLA-A2^+) T2 cells or T2 cells pulsed with individual TASA or TAA peptides (1 μM for 4 h at 37° C.) at a CD8^+ T cell-to-T2 cell ratio of 5:1 for 24 h. Harvested cell-free supernatants were consequently assessed for hIFN-γ content using a specific ELISA (BD Biosciences, San Diego, Calif.) with a lower detection limit of 4.7 pg/ml.
CD8^+ T cells from HLA-A2^+ normal donors or HLA-A2^+ melanoma patients recognize TASA-derived peptides in vitro. To assess whether the TASA-derived peptides identified in the HHD tumor model were also capable of being recognized by human CD8^+ T cells, IVS was performed using T cells isolated from the peripheral blood of HLA-A2^+ donors or HLA-A2^+ patients with melanoma. DC were pulsed with peptides derived from a given TASA for 4 h at 37° C., then washed and used as stimulator cells for autologous CD8^+ T cells. In cases where more than one peptide existed for a given protein, DC were pulsed with an equimolar (10 μM) mixture of each peptide. Two rounds of IVS using TASA for normal donors and a single-round of IVS using TASA for melanoma patients was applied. HLA-A2^+ normal donors (FIG. 4; Tables 4, 5A and 5B) and melanoma patients (FIG. 4; Tables 4, 5A and 5B) were each capable of recognizing many of the TASA-derived peptides.

CD8+ splenocytes = test: Tc1 response to DC.IL12/peptide vaccination (splenic CD8+ T cell IFN-γ ELISA against peptide-pulsed T2 cells); assay type: in vivo, HHD mice; conditions: DC.IL12 pulsed with peptide(s), two s.c. vaccinations; versus DC only
Text: FIGS. 9A-9B show a series of graphs illustrating induction of specific/protective CD8^+ T cells reactive against TASA as a consequence of DC/peptide-based vaccination. In FIG. 9A, HHD mice (five animals/cohort) were vaccinated twice (d-14, d-7) subcutaneously with PBS or with isologous DC.IL12 pulsed with PBS or synthetic peptides (Table 6) derived from the indicated TASA. In cases where more than 1 peptide was identified for a given target antigen, an equimolar pool of the indicated peptides (each 10 μM) was pulsed onto DC.IL12 and used for vaccination in the relevant cohort. One week after the second immunization, spleens were harvested and splenic CD8^+ T cells isolated using MACS-beads (Miltenyi). T cells were stimulated in vitro for 48 h using the HLA-A2^+ T2 cell line pulsed with relevant TASA vs. irrelevant HIV-nef190-198 ([…]; ref. 24) peptides. Cell-free supernatants were then recovered and IFN-γ levels by ELISA. Data are reported as mean+/−SD for triplicate ELISA determinations, and are representative of 3 independent experiments performed. *p<0.05 vs. HIV-nef control peptide responses. In FIG. 9B, HHD mice were vaccinated twice (days −14 and −7; right flank) subcutaneously with PBS or with isologous DC.IL12 pulsed with PBS or synthetic TASA peptides as indicated in FIG. 1A. In cases where more than 1 peptide is identified for a given target antigen, an equimolar pool of the indicated peptides (each 10 μM) was pulsed onto DC.IL12 and used for vaccination in the relevant cohort. One week after the booster vaccine (i.e. day zero), animals were challenged subcutaneously on their left flank with 2×10^6 MC38 colon carcinoma cells. Tumor growth was then monitored every 3-4 days through day 24. All data represent mean tumor area (in mm^2)+/−SD determined from 5 mice/cohort, and are representative of three independent experiments performed. *p<0.05 versus DC only on the indicated days.
Vaccine Experiments. For prophylactic experiments, HHD mice were immunized subcutaneously on the right flank with 100 μl PBS or PBS containing 10^6 syngenic DC.IL12 cells that had been untreated or pre-pulsed for 4 h at 37° C. with 10 μM synthetic peptide(s). Immunizations occurred on days −14 and −7, with mice subsequently receiving injections of MC38 (2×10^6) tumor cells in the left flank on d0. In all cases, treatment groups contained 5 mice per cohort. For analysis of tumor cellular composition in repeat experiments, MC38 tumors were isolated by surgical resection 10 days after tumor inoculation and prepared for fluorescence imaging, as described below. […] Mice were then untreated or treated with control, syngenic DC.IL12 or DC.IL12 (10^6 cells injected subcutaneously in the left flank on days 7 and 14) pulsed with synthetic TBVA peptides. In some assays, as indicated, in vivo antibody depletions (on days 6, 13 and 20 post-tumor inoculation to assess early involvement or on days 60 and 67 or 180 and 187 to assess late involvement) of protective CD4^+ T cells or CD8^+ T cells were performed and monitored as previously described (Zhao et al., Mol Ther., 19:805-814, 2011). In all cases, tumor size (area) was monitored every 3-4 days and is reported as mean+/−SD in mm^2.
Evaluation of Specific CD8^+ T Cell Responses in HHD Mice. MACS (Miltenyi Biotec) CD8^+ splenocytes were harvested (from 3 mice/group) 7 days after the second round of DC-based vaccination (i.e. day 21 after tumor inoculation) and analyzed for reactivity against unpulsed T2 cells, TBVA peptide-pulsed T2 cells, or day 19 (flow-sorted) B16-derived PDGFRβ^+CD31^negH-2K^b(neg) pericytes or PDGFRβ^negCD31^+H-2K^b(neg) VEC isolated as previously described (Zhao et al., Mol Ther., 19:805-814, 2011). Where indicated, 10 μg of anti-HLA-A2 mAb BB7.2 or control anti-class II mAb L243 (both from ATCC, Manassas, Va.) were added to replicate co-culture wells. After 48 h, supernatants were analyzed for mIFN-γ content by specific ELISA (BD-Biosciences; lower detection limit=31.3 pg/ml). […]

Sequence | Specific CD8+ T Cell Response, HLA-A2+ Normal Donors (of 8) [1] | Specific CD8+ T Cell Response, HLA-A2+ Melanoma Patients (of 10) [1] | Tc1 Response to Peptide Vaccine (HHD) (CD8+ splenocytes)
DIWDGIPHV (listed as Homo sapiens) | 0 | 4 | + (+, p < 0.05 versus DC only)
FLNKCETWV (listed as Homo sapiens) | 2 | 4 | + (+, p < 0.05 versus DC only)
GLLRFVTAV (listed as Homo sapiens) | 2 | 7 | + (+, p < 0.05 versus DC only)
GMLGMVSGL (listed as Homo sapiens) | 2 | 7 | + (+, p < 0.05 versus DC only)
ILGVLTSLV (listed as Homo sapiens) | 2 | 6 | + (+, p < 0.05 versus DC only)
ILLWEIFTL (listed as Homo sapiens) | 2 | 1 | + (+, p < 0.05 versus DC only)
LILPLLFYL (listed as Homo sapiens) | 0 | 4 | + (+, p < 0.05 versus DC only)
LLQERGVAYI (listed as Homo sapiens) | 0 | 2 | + (+, p < 0.05 versus DC only)
LLVPTCVFLV (listed as Homo sapiens) | 4 | 4 | + (+, p < 0.05 versus DC only)
NMLGMLSGL (listed as Homo sapiens) | 0 | 0 | –
RLLGNVLVCV (listed as Homo sapiens) | 1 | 1 | + (+, p < 0.05 versus DC only)
RLLVVYPWT (listed as Homo sapiens) | 2 | 6 | + (+, p < 0.05 versus DC only)
RLTPGVHEL (listed as Homo sapiens) | 1 | 4 | + (+, p < 0.05 versus DC only)
TLADFDPRV (listed as Homo sapiens) | 2 | 6 | + (+, p < 0.05 versus DC only)
TLFWLLLTL (listed as Homo sapiens) | 1 | 3 | + (+, p < 0.05 versus DC only)
TLSNLSFPV (listed as Homo sapiens) | 0 | 4 | –
VIAMFFWLL (listed as Homo sapiens) | 0 | 0 | + (+, p < 0.05 versus DC only)
VLLGAVCGV (listed as Homo sapiens) | 2 | 1 | + (+, p < 0.05 versus DC only)
YLQVDLRFL (listed as Homo sapiens) | 0 | 4 | –
